# In US10385145B1, “Liquid photo initiating compound and uses of the same” (CHITEC TECHNOLOGY CO., LTD., priority 2018, dated 2019):
# Read-outs that look alike come from different tables or passages of the source.
# How the values were obtained:
# [1] = background statement, relative to Irgacure 369 where stated; cited from earlier work
# [2] = background statement; cited from earlier work
# [3] = Photo speed performance test; conditions: 6 parts by weight photoinitiator + 2 parts Chivacure DETX in 100 parts black flexo formulation; wet film 25.15 μm; Fusion F300 D-bulb 300 W/inch
# Text: The black flexo formulation containing Oligomer 6325-100, EM2411 and carbon black (viscosity: 1750 cP) was mixed with a photoinitiator to carry out the photo speed performance test. […] The resultant mixture was coated on a printable pearlescent film (wet film thickness: 25.15 μm); and the coated printable pearlescent film was exposed to an UV light (Fusion F300, D-bulb, 300 W/inch) for curing.
# [4] = Solubility test: dissolution in acrylate mixtures I to III; format: physicochemical; conditions: one-hour ultrasonication at room temperature
# Description: Mixtures I to III were prepared according to the composition provided below, and then 6 parts by weight of photoinitiator Trgacure® 369 (available from IGM), photoinitiator R-gen® 919 (available from Chitec Technology Co., Ltd.) or photo initiating compound Ia was added to each of the mixtures I to III.
# [5] = Acute oral toxicity test (LD50), OECD Test Guidelines 423; format: in vivo; conditions: for LD50: acute oral, OECD 423; for Acute oral toxicity assessment: judged from LD50 exceeding 5000 mg/kg
# [6] = Photoinitiator dosage test (curing performance); set-up: key to Curing performance, 1 time of UV light treatment / Curing performance, 2 times of UV light treatment / Curing performance, 3 times of UV light treatment / Curing performance, 4 times of UV light treatment: X: Not tack-free; Δ: Tack-free but not through-cure; ◯: Tack-free and through-cure; conditions: for Curing performance, 1 time of UV light treatment / Curing performance, 2 times of UV light treatment / Curing performance, 3 times of UV light treatment / Curing performance, 4 times of UV light treatment: 365 nm, 4 W/inch
# Description: The commercially available black flexo ink without a photoinitiator was mixed with a photoinitiator to carry out the photo speed performance test, and the effect of the amount of photo initiating compound Ia on the photo speed performance was evaluated. […] The resultant mixture was coated on a PET film with primer (means for improving adhesion) (dry film thickness: 5 μm). The coated PET film was exposed to an UV light (wavelength: 365 nm; 4 W/inch) for curing.
# [7] = Viscosity variation test, 0° C. atmosphere for 7 days; format: physicochemical; conditions: for Viscosity, Mixture I, 7 days / Viscosity, Mixture I, Initial: 4 parts by weight photoinitiator in Mixture I; for Viscosity, Mixture I, 7 days / Viscosity, Mixture II, 7 days / Viscosity, Mixture III, 7 days: after 7 days in 0° C. atmosphere; for Viscosity, Mixture I, Initial / Viscosity, Mixture II, Initial / Viscosity, Mixture III, Initial: before exposure; for Viscosity, Mixture II, 7 days / Viscosity, Mixture II, Initial: 4 parts by weight photoinitiator in Mixture II; for Viscosity, Mixture III, 7 days / Viscosity, Mixture III, Initial: 4 parts by weight photoinitiator in Mixture III
# [8] = background statement; cited from earlier work; remark: listed apart in the source
# [9] = in UV inks; background statement; cited from earlier work
# [10] = 4 parts by weight photoinitiator
# [11] = 8 parts by weight photoinitiator
smiles,measurement,setting,value
CN(C)C(C)(C(=O)c1ccccc1)c1ccccc1 (stereo not drawn) [compound 96],Photo speed,[1],poor photospeeds
C=CCC(C)(C(=O)c1ccccc1)N(C)C (stereo not drawn) [compound 95],Photo speed,[1],poor photospeeds
C=CCC(C)(C(=O)c1ccccc1)N1CCOCC1 (stereo not drawn) [compound 93],Photo speed,[1],poor photospeeds
CCC(Cc1ccccc1)(C(=O)c1ccc(N(C)CCOC(C)=O)cc1)N(C)C (stereo not drawn) [compound IIa],Acute oral toxicity,[2],high acute oral toxicity
same,Photo speed,[1],comparable to Irgacure® 369
C=CCC(C(=O)c1ccccc1)(c1ccccc1)N(C)C (stereo not drawn) [compound 100],Photo speed,[1],poor photospeeds
CCC1(C)OCCN1c1ccc(C(=O)C(CC)(Cc2ccccc2)N(C)C)cc1 (stereo not drawn) [Photo initiating compound Ia],Photo speed,[3],120 m/minute
same,"Dissolution, Mixture I",[4]; 6 parts by weight photoinitiator in Mixture I,Completely
same,"Dissolution, Mixture II",[4]; 6 parts by weight photoinitiator in Mixture II,Completely
same,"Dissolution, Mixture III",[4]; 6 parts by weight photoinitiator in Mixture III,Completely
same,LD50,[5],>5000 mg/kg
same,LD50,"[5]; in vivo, read-out: LD50",> 5000 mg/kg
same,Acute oral toxicity assessment,[5],no acute oral toxicity
same,"Curing performance, 1 time of UV light treatment",[6]; [10],X
same,"Curing performance, 2 times of UV light treatment",[6]; [10],X
same,"Curing performance, 3 times of UV light treatment",[6]; [10],X
same,"Curing performance, 4 times of UV light treatment",[6]; [10],Δ
same,"Curing performance, 1 time of UV light treatment",[6]; [11],Δ
same,Solubility in black flexo ink,[6]; amount increased up to 12 parts by weight,no solubility issue was observed
same,Precipitate after exposure to 0° C. atmosphere for 7 days,[7]; 4 parts by weight in mixtures I to III,no precipitate was observed
same,"Viscosity, Mixture I, 7 days",[7],51.2 cP
same,"Viscosity, Mixture I, Initial",[7],41.6 cP
same,"Viscosity, Mixture II, 7 days",[7],406.7 cP
same,"Viscosity, Mixture II, Initial",[7],351.3 cP
same,"Viscosity, Mixture III, 7 days",[7],547.8 cP
same,"Viscosity, Mixture III, Initial",[7],433.1 cP
CCC(Cc1ccc(C)cc1)(C(=O)c1ccc(N2CCOCC2)cc1)N(C)C (stereo not drawn) [Irgacure® 379],Reproductive toxicity,[8],reproductive toxicity
CCCCCCNc1ccc(C(=O)C(CC)(Cc2ccccc2)N(C)C)cc1 (stereo not drawn) [compound I],Photo speed,[1],comparable to that of Irgacure® 369
CCC(Cc1ccccc1)(C(=O)c1ccc(N2CCOCC2)cc1)N(C)C (stereo not drawn) [Irgacure® 369],Reproductive toxicity,[8],reproductive toxicity
same,Photo speed,[3],120 m/minute
same,LD50,[5],>5000 mg/kg
same,LD50,"[5]; in vivo, read-out: LD50",> 5000 mg/kg
same,Acute oral toxicity assessment,[5],no acute oral toxicity
same,"Curing performance, 1 time of UV light treatment",[6]; [10],X
same,"Curing performance, 2 times of UV light treatment",[6]; [10],X
same,"Curing performance, 3 times of UV light treatment",[6]; [10],X
same,"Curing performance, 4 times of UV light treatment",[6]; [10],Δ
same,Dissolution in black flexo ink,[6]; [11],Incomplete dissolution
same,"Viscosity, Mixture I, 7 days",[7],60.4 cP
same,"Viscosity, Mixture I, Initial",[7],52.7 cP
same,"Viscosity, Mixture II, 7 days",[7],Precipitate
same,"Viscosity, Mixture II, Initial",[7],385.0 cP
same,"Viscosity, Mixture III, 7 days",[7],Precipitate
same,"Viscosity, Mixture III, Initial",[7],487.0 cP
same,Dosage above which prone to precipitate,[9],over 4 wt %
